Test results published in patent US20080200682A1, “Process of Producing Bleach Boosters” (BASF Aktiengesellschaft, priority 2005, published 2008).
Where a name gives a salt, the structure may show the parent alone.

How the values were obtained:
Format in all cases: biochemical
[1] = system: Amylase enzymes: Termamyl, Natalase, and Duramyl; experiment: Organic Catalyst/Enzyme Compatibility Test, average ECV of the three enzymes; conditions: ECV=(ECVter+ECVdur+ECVnat)/3; [Peracetic Acid]=5.0 ppm; [organic catalyst]=0.5 ppm
[2] = system: Natalase (amylase enzyme); experiment: Organic Catalyst/Enzyme Compatibility Test (alpha amylase activity assay), Natalase; conditions: (Ac/Ab)x100 for Natalase; [Peracetic Acid]=5.0 ppm; [organic catalyst]=0.5 ppm; detergent solution, 40° C.
[3] = target: T1, Termamyl (amylase enzyme) (Bacillus licheniformis, UniProt P06278)
T1 construct: purchased Novozymes, Denmark
T1 sequence (P06278 30-512): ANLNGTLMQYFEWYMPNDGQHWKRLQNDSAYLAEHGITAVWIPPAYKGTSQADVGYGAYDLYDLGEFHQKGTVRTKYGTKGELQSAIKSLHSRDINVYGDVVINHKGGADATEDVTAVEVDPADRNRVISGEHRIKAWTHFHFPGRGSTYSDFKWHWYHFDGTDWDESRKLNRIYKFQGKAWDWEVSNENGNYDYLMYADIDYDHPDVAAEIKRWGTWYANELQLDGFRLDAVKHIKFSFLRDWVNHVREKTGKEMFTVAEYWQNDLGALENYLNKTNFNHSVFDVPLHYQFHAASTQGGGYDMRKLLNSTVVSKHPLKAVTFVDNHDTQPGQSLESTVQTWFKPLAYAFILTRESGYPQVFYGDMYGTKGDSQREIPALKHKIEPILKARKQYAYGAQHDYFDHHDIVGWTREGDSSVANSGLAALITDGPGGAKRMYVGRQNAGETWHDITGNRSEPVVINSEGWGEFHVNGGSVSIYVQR

Duramyl (amylase enzyme) = experiment: Organic Catalyst/Enzyme Compatibility Test (alpha amylase activity assay), Duramyl; conditions: (Ac/Ab)x100 for Duramyl; [Peracetic Acid]=5.0 ppm; [organic catalyst]=0.5 ppm; detergent solution, 40° C.

Compound	Enzyme Compatibility Values ECV [1]	Enzyme Compatibility Values ECVnat [2]	Enzyme Compatibility Values ECVter [3]	Enzyme Compatibility Values ECVdur (Duramyl (amylase enzyme))
CCCCC(CC)COCC(C[N+]1=Cc2ccccc2CC1)OS(=O)(=O)[O-] (stereo not drawn) [Entry 2, reference compound]	67	57	54	90
CCCCCC(CCC)COCC(C[N+]1=Cc2ccccc2CC1)OS(=O)(=O)[O-] (stereo not drawn) [Entry 3, Sulfuric acid mono-[2-(3,4-dihydro-isoquinolin-2-yl)-1-(2-propylheptyloxymethyl)-ethyl]ester, internal salt]	99	99	98	101
CCCCCCC(CCCC)COCC(C[N+]1=Cc2ccccc2CC1)OS(=O)(=O)[O-] (stereo not drawn) [Entry 4, Sulfuric acid mono-[2-(3,4-dihydro-isoquinolin-2-yl)-1-(2-butyl-octyloxymethyl)-ethyl]ester, internal salt]	101	102	101	101
Sulfuric acid mono-[2-(3,4-dihydro-isoquinolin-2-yl)-1-(iso-decyloxymethyl)-ethyl]ester, internal salt [Entry 7]	97	96	98	97
Sulfuric acid mono-[2-(3,4-dihydro-isoquinolin-2-yl)-1-(iso-nonyloxymethyl)-ethyl]ester, internal salt [Entry 6]	90	88	86	96
Sulfuric acid mono-[2-(3,4-dihydro-isoquinolin-2-yl)-1-(iso-tridecyloxymethyl)-ethyl]ester, internal salt [Entry 8]	100	101	99	100
